From EP0227593A1, “Use of chelating agents” (THE HOSPITAL FOR SICK CHILDREN, priority 1985, dated 1987)

Tests used:
[1] = tested on: Lewis lung carcinoma; assay: Tumour growth and metastases of Lewis lung carcinoma in mice; assay type: in vivo; conditions: 5 injections
Experimental: Female C57B16 mice (10 mice/group, 18-22 g body weight) were i.m. injected into the left hind leg with 0.1 ml of a tumour cell suspension of Lewis lung carcinoma (day 0).
Nine groups of animals were investigated. The test compounds were s.c. administered as follows: physiological saline: once daily for eleven days starting from day 0 up to day 10. DFO: 0.5 ml in distilled water in a dose of 10 and 30 mg/kg once daily for eleven days, on day 0 up to day 10 after tumour inocculation. 10-EDAM: 0.5 ml in distilled water in a dose of 3 and 6 mg/kg, once daily on days 1, 3, 5, 7 and 9 after tumour inocculation.
Both hind legs were removed from the body, weighed, and the difference between the tumour bearing and the tumour free leg was taken as the tumour weight of one idividual mouse.
Lungs were filled up with Pelikan-ink via the trachea, fixed in Fekete-solution and metastases (white spot on black back-ground) on the lung surface were counted microscopically.

[2] = tested on: HL-60 cells; assay: HL-60 colony growth with cytostatic compounds alone or with 1 µM DFO; assay type: cell-based, human; conditions: cytostatic alone, various concentrations
Experimental: HL-60 cells (10⁴/ml) were plated in 0.8 % methycellulose in RPMI-1640 medium supplemented with 20 % heat inactivated (56°C, 30 min) fetal calf serum at a final volume of 1 ml/culture plate. Cultures were set up in duplicates and maintained at 37°C in a 5 % CO₂ humidified atmosphere. Deferoxamine was dissolved in iron-free RPMI culture medium and added at the initiation of culture at different concentrations (1-10 µM). Colonies were counted at 7 days using an inverted microscope. A cluster of more than 20 cells was defined as a colony. Individual colonies were plucked from culture plates spread on glass slides and morphologically assessed after preparation with Wright's stain and non-specific esterase in the presence of fluoride (29). The self renewal capacity of cells was assessed according to McCulloch et al (30). RPMI-1640 medium was added to culture dishes for 2 hrs; the contents of each dish were then transferred into a tube, centrifuged and washed with medium three times. Cells from each dish were counted separately, and viability was assessed by trypan blue dye exclusion. Cells (1x10⁴/ml) from each dish were recultured in 0.8 % methylcellulose as before. […]
Cultures were evaluated at day 6 using an inverted microscope (100 x magnification). A cluster of more than 20 cells was determined as a colony.

[3] = tested on: L-1210 tumour cells; assay: L-1210 tumour growth in mice; assay type: in vivo; conditions: day 8
Experimental: One hour prior to kill on day 8 the mice received one ip injection of 0.002 mCi of 3H-thymidine per g body weight. Cells were harvested from the peritoneal cavity, the volume of ascites measured and the cell counts determined in a coulter counter, after lysis of red cells with zap-oglobin, for calculation of total tumour cell numbers. Also, of each sample cell smears were done, Feulgen stained and autoradiographed, whereby the number and percentage of labelled cells was determined and used as a measure for proliferating cells.

[4] = tested on: HL-60 cells; assay: Colony growth of HL-60 cells; assay type: cell-based, human; conditions: concentration of 10 µm
Experimental: HL-60 cells, a promyeloctic leukemia cell line originally developed by Dr. R. Gallo, NIH, were used. Cells were grown in RPMI supplemented with 10 % heat inactivated fetal calf serum (FCS, Flow Laboratories, Rockville, MO) and 2 mM glutamine (Gibco, Berkely, CA), at densities ranging from 1-2 x 10⁵/ml to 1-10⁶/ml, in a 5 % CO₂ humidified atmosphere at 37°C.
HL-60 cells (10⁴/ml) were plated in 0.8 % methycellulose in RPMI-1640 medium supplemented with 20 % heat inactivated (56°C, 30 min) fetal calf serum at a final volume of 1 ml/culture plate. Cultures were set up in duplicates and maintained at 37°C in a 5 % CO₂ humidified atmosphere. Deferoxamine was dissolved in iron-free RPMI culture medium and added at the initiation of culture at different concentrations (1-10 µM). Colonies were counted at 7 days using an inverted microscope. A cluster of more than 20 cells was defined as a colony. Individual colonies were plucked from culture plates spread on glass slides and morphologically assessed after preparation with Wright's stain and non-specific esterase in the presence of fluoride (29). The self renewal capacity of cells was assessed according to McCulloch et al (30). RPMI-1640 medium was added to culture dishes for 2 hrs; the contents of each dish were then transferred into a tube, centrifuged and washed with medium three times. Cells from each dish were counted separately, and viability was assessed by trypan blue dye exclusion. Cells (1x10⁴/ml) from each dish were recultured in 0.8 % methylcellulose as before.

[5] = DFO 400 mg/kg/d s.c. minipump from day 2, Ara-C 200 mg/kg once ip on day 6

CCC(Cc1cnc2nc(N)nc(N)c2n1)c1ccc(C(=O)N[C@@H](CCC(=O)O)C(=O)O)cc1 (stereo partly drawn) [10-EDAM, N-[4-[1-(2,4-Diamino-6-pteridinyl)but-2-yl]-benzoyl]-L-glutamic acid]
Number of lung metastases % of control ([1]; group 4: 10-EDAM 3 mg/kg s.c.): 66% | Number of lung metastases x̄ ± SD ([1]; group 4: 10-EDAM 3 mg/kg s.c.): 44 ± 18 | Tumour weight % of control ([1]; group 4: 10-EDAM 3 mg/kg s.c.): 91% | Tumour weight x̄ ± SD ([1]; group 4: 10-EDAM 3 mg/kg s.c.): 6.87 ± 0.47 g | Number of lung metastases % of control ([1]; group 5: 10-EDAM 6 mg/kg s.c.): 34% | Number of lung metastases x̄ ± SD ([1]; group 5: 10-EDAM 6 mg/kg s.c.): 23 ± 10 | Tumour weight % of control ([1]; group 5: 10-EDAM 6 mg/kg s.c.): 89% | Tumour weight x̄ ± SD ([1]; group 5: 10-EDAM 6 mg/kg s.c.): 6.70 ± 1.06 g

Nc1ccn([C@@H]2O[C@H](CO)[C@@H](O)[C@@H]2O)c(=O)n1 [Ara-C, 1-β-D-arabinofuranosyl-cytosine]
HL-60 colony growth [2]: inhibited colony growth in a dose-dependent manner | proportions of proliferating cells ([3]; 3H-thymidine labelled cells, same doses as Table 12): 26 % ± 6% | Number of cells in the peritoneal cavity % of control [3, 5]: 30% | Number of cells in the peritoneal cavity x̄ ± SD [3, 5]: 1.11 ± 0.40 * 10^8 | Number of proliferating cells in peritoneal cavity % of control [3, 5]: 24% | Number of proliferating cells in peritoneal cavity x̄ ± SD [3, 5]: 0.29 ± 0.10 * 10^8

CC(=O)N([O-])CCCCCNC(=O)CCC(=O)N([O-])CCCCCNC(=O)CCC(=O)N([O-])CCCCCN.[Fe+3] [Ferrioxamine]
colony formation [4]: did not affect colony formation

CN(Cc1cnc2nc(N)nc(N)c2n1)c1ccc(C(=O)N[C@@H](CCC(=O)O)C(=O)O)cc1 [methotrexate, L-(+)-N-[4-N-(2,4-diamino-6-pteridinyl)-methyl-N-methyl-amino]-benzoyl-L-glutamic acid]
HL-60 colony growth [2]: dose-dependent growth inhibitory effect
